Data as given in patent US20180000085A1, “USE OF PICOLINAMIDE COMPOUNDS WITH FUNGICIDAL ACTIVITY” (DOW AGROSCIENCES LLC, priority 2014, published 2018).

Assays:
Format in all cases: in vivo
Alternaria solani = experiment: Tomato early blight (ALTESO) disease control; set-up: key: A: > 80; B: ≤ 80; C: Not Tested; D: No Activity Observed in the Reported Assay; conditions: 100 ppm, 1 Day Protectant
Procedure: All fungicides were evaluated using the aforementioned method for their activity vs. all target diseases, unless stated otherwise. Wheat leaf blotch and brown rust activity were also evaluated using track spray applications, in which case the fungicides were formulated as EC formulations, containing 0.1% Trycol 5941 in the spray solutions. Wheat plants (variety Yuma) were grown from seed in a greenhouse in 50% mineral soil/50% soil-less Metro mix until the first leaf was fully emerged, with 7-10 seedlings per pot. These plants were inoculated with an aqueous spore suspension of Zymoseptoria tritici either prior to or after fungicide treatments. After inoculation the plants were kept in 100% relative humidity (one day in a dark dew chamber followed by two to three days in a lighted dew chamber at 20° C.) to permit spores to germinate and infect the leaf. The plants were then transferred to a greenhouse set at 20° C. for disease to develop. When disease symptoms were fully expressed on the 1st leaves of untreated plants, infection levels were assessed on a scale of 0 to 100 percent disease severity. Percent disease control was calculated using the ratio of disease severity on treated plants relative to untreated plants. Example J: Evaluation of Fungicidal Activity: Tomato Early Blight (Alternaria solani; Bayer Code […]) Tomato plants (variety Outdoor Girl) were propagated in soil-less Metro mix, with each pot having one plant, and used when 12 to 14 days old. Test plants were inoculated with an aqueous spore suspension of Alternaria solani 24 hr after fungicide treatments. After inoculation the plants were kept in a dew room at 22° C. with 100% relative humidity for 48 h to permit spores to germinate and infect the leaf. The plants were then transferred to a growth room at 22° C. for disease to develop. Fungicide formulation, application and disease assessment on the sprayed leaves followed the procedures as described in the Example A.

Cercospora beticola = experiment: Leaf spot of sugar beets (CERCBE) disease control; conditions: 100 ppm; 1 Day Protectant; sugar beet
Procedure: All fungicides were evaluated using the aforementioned method for their activity vs. all target diseases, unless stated otherwise. Wheat leaf blotch and brown rust activity were also evaluated using track spray applications, in which case the fungicides were formulated as EC formulations, containing 0.1% Trycol 5941 in the spray solutions. Wheat plants (variety Yuma) were grown from seed in a greenhouse in 50% mineral soil/50% soil-less Metro mix until the first leaf was fully emerged, with 7-10 seedlings per pot. These plants were inoculated with an aqueous spore suspension of Zymoseptoria tritici either prior to or after fungicide treatments. After inoculation the plants were kept in 100% relative humidity (one day in a dark dew chamber followed by two to three days in a lighted dew chamber at 20° C.) to permit spores to germinate and infect the leaf. The plants were then transferred to a greenhouse set at 20° C. for disease to develop. When disease symptoms were fully expressed on the 1st leaves of untreated plants, infection levels were assessed on a scale of 0 to 100 percent disease severity. Percent disease control was calculated using the ratio of disease severity on treated plants relative to untreated plants. Example F: Evaluation of Fungicidal Activity: Leaf Spot of Sugar Beets (Cercospora beticola; Bayer Code CERCBE) Sugar beet plants (variety HH88) were grown in soil-less Metro mix and trimmed regularly to maintain a uniform plant size prior to test. Plants were inoculated with a spore suspension 24 hr after fungicide treatments. Inoculated plants were kept in a dew chamber at 22° C. for 48 hr then incubated in a greenhouse set at 24° C. under a clear plastic hood with bottom ventilation until disease symptoms were fully expressed. Fungicide formulation, application and disease assessment on the sprayed leaves followed the procedures as described in the Example A.

Puccinia triticina = experiment: Wheat brown rust (PUCCRT) disease control on wheat seedlings; set-up: key to PUCCRT 3DC, HV activity at 100 ppm (% control rating) / PUCCRT disease control, 3DC / PUCCRT 1DP disease control rating, HV activity / PUCCRT 3DC disease control rating, HV activity / PUCCRT 3DC, LV activity at 125.1 g/H (% Control rating) / PUCCRT 1DP, LV activity at 125.1 g/H (% Control rating) / PUCCRT 3DC disease control rating, LV activity at 125.1 g/H / PUCCRT 1DP disease control rating, LV activity at 125.1 g/H / PUCCRT 3DC disease control rating, HV activity at 100 ppm / PUCCRT 1DP disease control rating, HV activity at 100 ppm / HV activity at 100 ppm PUCCRT 3DC (disease control rating) / LV activity at 125.1 g/H PUCCRT 1DP (disease control rating) / LV activity at 125.1 g/H PUCCRT 3DC (disease control rating): A: > 80; B: ≤ 80; C: Not Tested; D: No Activity Observed in the Reported Assay; conditions: low volume application, 125.1 g/H; for PUCCRT 1DP disease control rating, LV activity at 125.1 g/H: 1 day protectant; for PUCCRT 3DC disease control rating, LV activity at 125.1 g/H: 3 day curative

| SMILES | ALTESO disease control, 1DP (Alternaria solani) | CERCBE disease control, 1DP (Cercospora beticola) | PUCCRT 1DP, LV activity at 125.1 g/H (% Control rating) (Puccinia triticina; 1 Day Protectant) | PUCCRT 3DC, LV activity at 125.1 g/H (% Control rating) (Puccinia triticina; 3 Day Curative) | PUCCRT 1DP disease control rating, LV activity at 125.1 g/H (Puccinia triticina) | PUCCRT 3DC disease control rating, LV activity at 125.1 g/H (Puccinia triticina) | LV activity at 125.1 g/H PUCCRT 1DP (disease control rating) (Puccinia triticina; 1 Day Protectant, wheat brown rust) | LV activity at 125.1 g/H PUCCRT 3DC (disease control rating) (Puccinia triticina; 3 Day Curative, wheat brown rust) |
| --- | --- | --- | --- | --- | --- | --- | --- | --- |
| CCC(CC)[C@@H](Oc1ccc(F)cc1)[C@H](C)OC(=O)[C@H](C)NC(=O)c1nccc(OC)c1OCOC(C)=O [Cmpd 587] | D | A (> 80) | A (> 80) | A (> 80) |  |  |  |  |
| COc1ccnc(C(=O)N[C@@H](C)C(=O)O[C@@H](C)[C@@H](Oc2ccccc2)C(C)C)c1OCOC(C)=O [Cmpd 552] | B (≤ 80) | B (≤ 80) | A (> 80) | A (> 80) |  |  |  |  |
| CCC(C)C(Oc1ccccc1)C(C)OC(=O)C(C)NC(=O)c1nccc(OC)c1OC(C)=O (stereo not drawn) [Cmpd 691] | D | B (≤ 80) |  |  | A (> 80) | A (> 80) |  |  |
| COc1ccnc(C(=O)N[C@@H](C)C(=O)O[C@@H](C)[C@H](Oc2cccc(F)c2)c2ccccc2)c1OCOC(C)=O [Cmpd 574] | B (≤ 80) | A (> 80) | A (> 80) | A (> 80) |  |  |  |  |
| COc1ccnc(C(=O)N[C@H](C)C(=O)O[C@H](C)[C@H](Oc2ccccc2)C(C)C)c1OCOC(C)=O [Cmpd 560] | B (≤ 80) | B (≤ 80) | D | D |  |  |  |  |
| COc1ccnc(C(=O)N[C@@H](C)C(=O)O[C@@H](C)[C@H](Oc2ccccc2)C(C)C)c1OCOC(C)=O [Cmpd 475] | B (≤ 80) | A (> 80) | A (> 80) | A (> 80) |  |  |  |  |
| C=CC(C)C(Oc1ccccc1)C(C)OC(=O)C(C)NC(=O)c1nccc(OC)c1OCOC(C)=O (stereo not drawn) [Cmpd 694] | B (≤ 80) | A (> 80) |  |  | A (> 80) | A (> 80) |  |  |
| COc1ccnc(C(=O)N[C@@H](C)C(=O)O[C@@H](C)[C@H](Oc2ccccc2)C(C)C)c1OC(C)=O [Cmpd 478] | B (≤ 80) | B (≤ 80) | A (> 80) | A (> 80) |  |  |  |  |
| COc1ccnc(C(=O)N[C@@H](C)C(=O)O[C@@H](C)[C@@H](CC(C)C)Oc2ccccc2)c1OCOC(=O)C(C)C [Cmpd 1101] | D | A (> 80) |  |  |  |  | A (> 80) | A (> 80) |
| COc1ccnc(C(=O)N[C@@H](C)C(=O)O[C@@H](C)[C@H](Oc2cccc(Cl)c2)c2ccccc2)c1OCOC(C)=O [Cmpd 637] | D | B (≤ 80) | A (> 80) | B (≤ 80) |  |  |  |  |
| CC[C@@H](CCOC)[C@@H](Oc1ccccc1)[C@H](C)OC(=O)[C@H](C)NC(=O)c1nccc(OC)c1OCOC(C)=O [Cmpd 476] | B (≤ 80) | B (≤ 80) | A (> 80) | A (> 80) |  |  |  |  |
| COc1ccnc(C(=O)N[C@@H](C)C(=O)O[C@@H](C)[C@H](Oc2cccc(Cl)c2)C(C)C)c1OC(C)=O [Cmpd 566] | B (≤ 80) | B (≤ 80) | A (> 80) | A (> 80) |  |  |  |  |
| CCC(CC)[C@@H](Oc1ccccc1)[C@H](C)OC(=O)[C@H](C)NC(=O)c1nccc(OC)c1OC(C)=O [Cmpd 479] | B (≤ 80) | A (> 80) | A (> 80) | A (> 80) |  |  |  |  |
| CCC(CC)[C@@H](Oc1ccccc1)[C@H](C)OC(=O)[C@H](C)NC(=O)c1nccc(OC)c1OCOC(C)=O [Cmpd 477] | B (≤ 80) | A (> 80) | A (> 80) | A (> 80) |  |  |  |  |
| COc1ccnc(C(=O)N[C@@H](C)C(=O)O[C@@H](C)[C@@H](CC(C)C)Oc2ccccc2)c1OCOC(C)=O [Cmpd 557] | B (≤ 80) | B (≤ 80) | A (> 80) | A (> 80) |  |  |  |  |
| COc1ccnc(C(=O)N[C@@H](C)C(=O)O[C@@H](C)[C@H](Oc2cc(F)cc(Cl)c2)c2ccccc2)c1OC(C)=O [Cmpd 642] | D | A (> 80) | A (> 80) | B (≤ 80) |  |  |  |  |
| CC[C@@H](CCOC)[C@@H](Oc1ccccc1)[C@H](C)OC(=O)[C@H](C)NC(=O)c1nccc(OC)c1OC(C)=O [Cmpd 482] | B (≤ 80) | A (> 80) | A (> 80) | A (> 80) |  |  |  |  |
| CCC[C@@H](Oc1ccccc1)[C@H](C)OC(=O)[C@H](C)NC(=O)c1nccc(OC)c1OCOC(C)=O [Cmpd 699] | B (≤ 80) | A (> 80) |  |  | A (> 80) | A (> 80) |  |  |
